Patent US20250326753A1, “DUAL CXCR4-BTK INHIBITORS” (X4 Pharmaceuticals, Inc., priority 2022, published 2025)
Like-named read-outs stand apart in the source and are kept apart here.

Experiments:
Format in all cases: biochemical
RIPK5 = molecular target: T1, RIPK5 (Homo sapiens, UniProt Q6XUX3); test: PanQinase kinase panel: RIPK5; settings: read-out: INHIBITORY EFFECT @ 1 uM: RIPK5
T1 construct: purchased Reaction Biology Europe GmbH
T1 sequence (Q6XUX3 1-929): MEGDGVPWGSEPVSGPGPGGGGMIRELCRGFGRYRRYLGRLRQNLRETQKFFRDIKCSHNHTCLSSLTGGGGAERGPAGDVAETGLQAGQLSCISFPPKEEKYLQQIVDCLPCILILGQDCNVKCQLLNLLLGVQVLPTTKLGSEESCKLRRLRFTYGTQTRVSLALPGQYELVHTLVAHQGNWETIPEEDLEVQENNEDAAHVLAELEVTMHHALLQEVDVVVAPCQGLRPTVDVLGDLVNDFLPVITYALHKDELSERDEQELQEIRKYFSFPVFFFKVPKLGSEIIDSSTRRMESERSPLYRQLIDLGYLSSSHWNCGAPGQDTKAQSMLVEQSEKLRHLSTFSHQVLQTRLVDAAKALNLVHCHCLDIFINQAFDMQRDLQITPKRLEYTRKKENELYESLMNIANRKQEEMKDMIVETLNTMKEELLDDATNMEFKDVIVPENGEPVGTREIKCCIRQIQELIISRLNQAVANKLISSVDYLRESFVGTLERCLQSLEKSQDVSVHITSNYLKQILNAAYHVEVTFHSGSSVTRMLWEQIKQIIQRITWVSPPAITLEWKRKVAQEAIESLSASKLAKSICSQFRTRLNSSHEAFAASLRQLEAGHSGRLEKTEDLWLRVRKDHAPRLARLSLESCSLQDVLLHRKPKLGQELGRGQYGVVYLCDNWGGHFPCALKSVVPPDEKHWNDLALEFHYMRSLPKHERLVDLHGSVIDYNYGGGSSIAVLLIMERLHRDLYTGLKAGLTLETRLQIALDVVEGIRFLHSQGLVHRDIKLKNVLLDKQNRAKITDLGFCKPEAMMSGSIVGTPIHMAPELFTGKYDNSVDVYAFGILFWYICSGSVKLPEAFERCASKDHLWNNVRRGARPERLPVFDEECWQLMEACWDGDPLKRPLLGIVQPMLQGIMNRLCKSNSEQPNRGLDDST
Procedure: (§1) Screening procedures were performed in accordance with the company's on-line protocol [accessed on-line Mar.
(§2) For each kinase, the median value of the cpm of three wells was defined as “low control” (n=3). This value reflects unspecific binding of radioactivity to the plate in the absence of a protein kinase but in the presence of the substrate. Additionally, for each kinase the median value of the cpm of three other wells was taken as the “high control,” i.e. full activity in the absence of any inhibitor (n=3). The difference between high and low control of each enzyme was taken as 100% activity.
(§3) As part of the data evaluation the low control of each kinase was subtracted from the high control value as well as from their corresponding “compound values”. The residual activity (in %) for each compound well was calculated by using the following formula: Res. Activity (%)=100×[(signal of compound−low control)/(high control−low control)].

AuroraA = molecular target: T2, AuroraA (Homo sapiens, UniProt O14965); test: PanQinase kinase panel: AuroraA
T2 construct: purchased Reaction Biology Europe GmbH
T2 sequence (O14965 1-403): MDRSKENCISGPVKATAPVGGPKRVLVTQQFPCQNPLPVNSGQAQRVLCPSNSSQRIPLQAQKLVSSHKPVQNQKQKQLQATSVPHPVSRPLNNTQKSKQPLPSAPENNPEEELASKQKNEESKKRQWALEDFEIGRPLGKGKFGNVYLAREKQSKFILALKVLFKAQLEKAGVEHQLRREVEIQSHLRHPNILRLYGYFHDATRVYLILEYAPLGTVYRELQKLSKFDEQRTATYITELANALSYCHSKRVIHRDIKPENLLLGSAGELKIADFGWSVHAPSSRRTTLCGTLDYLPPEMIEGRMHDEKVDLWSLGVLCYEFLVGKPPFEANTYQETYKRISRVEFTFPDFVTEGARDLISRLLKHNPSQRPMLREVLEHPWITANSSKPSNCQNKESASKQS
Procedure: as §1, §2, §3

CK1epsilon = molecular target: T3, CK1epsilon (Homo sapiens, UniProt P49674); test: PanQinase kinase panel: CK1epsilon; settings: read-out: INHIBITORY EFFECT @ 1 uM: CK1epsilon
T3 construct: purchased Reaction Biology Europe GmbH
T3 sequence (P49674 whole entry): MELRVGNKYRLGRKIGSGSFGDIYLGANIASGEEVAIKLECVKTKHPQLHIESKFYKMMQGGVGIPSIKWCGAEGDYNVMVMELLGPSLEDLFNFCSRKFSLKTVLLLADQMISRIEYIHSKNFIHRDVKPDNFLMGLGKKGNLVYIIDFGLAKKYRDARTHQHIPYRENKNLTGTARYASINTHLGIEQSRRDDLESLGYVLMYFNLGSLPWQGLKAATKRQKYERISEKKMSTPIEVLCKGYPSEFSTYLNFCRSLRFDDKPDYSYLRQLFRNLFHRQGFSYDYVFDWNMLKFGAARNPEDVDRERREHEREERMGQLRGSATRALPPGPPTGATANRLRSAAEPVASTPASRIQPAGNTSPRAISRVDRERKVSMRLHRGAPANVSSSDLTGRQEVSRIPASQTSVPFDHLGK
Procedure: as §1, §2, §3

INSR = molecular target: T4, INSR (Homo sapiens, UniProt P06213); test: PanQinase kinase panel: INSR; settings: read-out: INHIBITORY EFFECT @ 1 uM: INSR
T4 construct: purchased Reaction Biology Europe GmbH
T4 sequence (P06213 28-1382): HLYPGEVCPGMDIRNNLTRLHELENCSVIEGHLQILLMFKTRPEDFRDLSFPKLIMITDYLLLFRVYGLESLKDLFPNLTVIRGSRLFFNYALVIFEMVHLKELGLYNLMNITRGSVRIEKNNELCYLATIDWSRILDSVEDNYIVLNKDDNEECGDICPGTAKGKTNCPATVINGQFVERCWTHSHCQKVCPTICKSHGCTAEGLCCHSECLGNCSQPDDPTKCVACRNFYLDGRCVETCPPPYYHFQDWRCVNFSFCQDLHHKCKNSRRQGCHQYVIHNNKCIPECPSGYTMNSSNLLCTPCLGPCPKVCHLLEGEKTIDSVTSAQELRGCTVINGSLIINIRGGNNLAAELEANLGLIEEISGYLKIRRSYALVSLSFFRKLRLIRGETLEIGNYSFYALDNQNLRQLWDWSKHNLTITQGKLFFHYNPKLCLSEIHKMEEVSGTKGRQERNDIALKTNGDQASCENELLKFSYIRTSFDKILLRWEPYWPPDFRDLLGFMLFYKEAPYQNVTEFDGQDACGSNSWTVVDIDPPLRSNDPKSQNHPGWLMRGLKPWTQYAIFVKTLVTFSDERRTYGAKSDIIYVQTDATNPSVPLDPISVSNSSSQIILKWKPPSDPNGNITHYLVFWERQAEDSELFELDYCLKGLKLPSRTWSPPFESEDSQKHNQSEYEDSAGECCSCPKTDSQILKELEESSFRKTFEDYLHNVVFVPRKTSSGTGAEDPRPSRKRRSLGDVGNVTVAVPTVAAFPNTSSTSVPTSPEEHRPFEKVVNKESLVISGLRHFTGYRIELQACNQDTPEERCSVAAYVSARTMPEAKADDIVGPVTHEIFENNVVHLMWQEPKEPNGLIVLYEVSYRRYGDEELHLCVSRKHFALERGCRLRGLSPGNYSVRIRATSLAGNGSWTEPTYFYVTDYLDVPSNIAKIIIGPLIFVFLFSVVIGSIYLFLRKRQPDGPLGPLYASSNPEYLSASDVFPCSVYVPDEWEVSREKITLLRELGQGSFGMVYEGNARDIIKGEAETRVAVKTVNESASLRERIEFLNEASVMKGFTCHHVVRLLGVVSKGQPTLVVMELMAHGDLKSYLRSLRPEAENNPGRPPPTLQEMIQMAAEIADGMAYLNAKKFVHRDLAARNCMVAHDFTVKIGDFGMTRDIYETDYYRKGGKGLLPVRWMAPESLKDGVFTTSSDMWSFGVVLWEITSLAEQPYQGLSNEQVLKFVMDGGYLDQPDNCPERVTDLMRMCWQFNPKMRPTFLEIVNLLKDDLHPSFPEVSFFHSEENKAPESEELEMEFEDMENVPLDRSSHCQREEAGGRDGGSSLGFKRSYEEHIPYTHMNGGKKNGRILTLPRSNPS
Procedure: as §1, §2, §3

TIE2 = molecular target: T5, TIE2 (Homo sapiens, UniProt Q02763); test: PanQinase kinase panel: TIE2; settings: read-out: INHIBITORY EFFECT @ 1 uM: TIE2
T5 construct: purchased Reaction Biology Europe GmbH
Procedure: as §1, §2, §3

ABL1 = molecular target: T6, ABL1 (Homo sapiens, UniProt P00519); test: PanQinase kinase panel: ABL1
T6 construct: purchased Reaction Biology Europe GmbH
T6 sequence (P00519 whole entry): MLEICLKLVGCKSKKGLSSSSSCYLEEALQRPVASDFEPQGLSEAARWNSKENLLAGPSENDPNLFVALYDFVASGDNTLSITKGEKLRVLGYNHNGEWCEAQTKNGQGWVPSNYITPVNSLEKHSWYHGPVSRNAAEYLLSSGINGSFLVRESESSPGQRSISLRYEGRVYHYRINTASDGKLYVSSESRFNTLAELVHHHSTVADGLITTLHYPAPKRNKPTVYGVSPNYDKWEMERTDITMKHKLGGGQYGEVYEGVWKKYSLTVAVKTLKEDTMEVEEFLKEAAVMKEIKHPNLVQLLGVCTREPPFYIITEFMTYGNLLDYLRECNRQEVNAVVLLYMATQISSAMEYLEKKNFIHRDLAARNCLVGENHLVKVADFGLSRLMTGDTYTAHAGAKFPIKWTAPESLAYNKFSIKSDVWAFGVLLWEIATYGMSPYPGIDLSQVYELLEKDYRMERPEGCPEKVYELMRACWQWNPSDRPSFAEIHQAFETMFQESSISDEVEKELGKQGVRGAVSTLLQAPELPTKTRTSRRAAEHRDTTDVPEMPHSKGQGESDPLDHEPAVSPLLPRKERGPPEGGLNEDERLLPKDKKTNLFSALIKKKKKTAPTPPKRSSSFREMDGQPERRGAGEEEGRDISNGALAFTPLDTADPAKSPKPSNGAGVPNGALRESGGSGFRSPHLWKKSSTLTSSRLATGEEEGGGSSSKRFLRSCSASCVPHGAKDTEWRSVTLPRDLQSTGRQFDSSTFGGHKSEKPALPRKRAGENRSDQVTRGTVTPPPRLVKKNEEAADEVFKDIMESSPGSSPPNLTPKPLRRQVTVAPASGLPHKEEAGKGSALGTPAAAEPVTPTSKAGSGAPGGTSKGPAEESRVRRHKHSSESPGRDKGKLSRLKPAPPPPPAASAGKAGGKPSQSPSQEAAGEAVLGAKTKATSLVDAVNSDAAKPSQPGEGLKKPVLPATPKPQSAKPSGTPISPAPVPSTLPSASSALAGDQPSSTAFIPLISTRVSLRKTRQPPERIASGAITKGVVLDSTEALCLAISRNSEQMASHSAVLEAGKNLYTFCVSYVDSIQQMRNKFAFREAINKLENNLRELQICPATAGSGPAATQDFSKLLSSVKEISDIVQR
Procedure: as §1, §2, §3

LIMK1 = molecular target: T7, LIMK1 (Homo sapiens, UniProt P53667); test: PanQinase kinase panel: LIMK1
T7 construct: purchased Reaction Biology Europe GmbH
T7 sequence (P53667 whole entry): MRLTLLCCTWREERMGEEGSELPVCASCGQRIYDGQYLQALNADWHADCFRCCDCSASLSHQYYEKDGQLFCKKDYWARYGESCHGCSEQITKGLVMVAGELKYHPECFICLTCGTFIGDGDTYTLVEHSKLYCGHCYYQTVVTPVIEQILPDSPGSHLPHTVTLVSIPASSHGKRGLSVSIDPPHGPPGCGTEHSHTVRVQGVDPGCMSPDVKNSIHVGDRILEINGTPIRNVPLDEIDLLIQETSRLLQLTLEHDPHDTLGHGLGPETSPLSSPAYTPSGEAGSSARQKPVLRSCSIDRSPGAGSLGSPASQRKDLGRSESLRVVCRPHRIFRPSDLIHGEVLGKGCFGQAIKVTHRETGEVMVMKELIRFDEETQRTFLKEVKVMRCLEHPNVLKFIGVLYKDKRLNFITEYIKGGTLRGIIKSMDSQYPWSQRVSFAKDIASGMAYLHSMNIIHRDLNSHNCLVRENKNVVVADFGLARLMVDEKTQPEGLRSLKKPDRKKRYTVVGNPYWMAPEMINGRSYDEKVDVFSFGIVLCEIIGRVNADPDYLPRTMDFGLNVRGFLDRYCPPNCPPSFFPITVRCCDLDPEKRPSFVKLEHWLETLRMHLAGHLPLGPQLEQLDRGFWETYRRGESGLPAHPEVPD
Procedure: as §1, §2, §3

SIK2 = molecular target: T8, SIK2 (Homo sapiens, UniProt Q9H0K1); test: PanQinase kinase panel: SIK2
T8 construct: purchased Reaction Biology Europe GmbH
T8 sequence (Q9H0K1 whole entry): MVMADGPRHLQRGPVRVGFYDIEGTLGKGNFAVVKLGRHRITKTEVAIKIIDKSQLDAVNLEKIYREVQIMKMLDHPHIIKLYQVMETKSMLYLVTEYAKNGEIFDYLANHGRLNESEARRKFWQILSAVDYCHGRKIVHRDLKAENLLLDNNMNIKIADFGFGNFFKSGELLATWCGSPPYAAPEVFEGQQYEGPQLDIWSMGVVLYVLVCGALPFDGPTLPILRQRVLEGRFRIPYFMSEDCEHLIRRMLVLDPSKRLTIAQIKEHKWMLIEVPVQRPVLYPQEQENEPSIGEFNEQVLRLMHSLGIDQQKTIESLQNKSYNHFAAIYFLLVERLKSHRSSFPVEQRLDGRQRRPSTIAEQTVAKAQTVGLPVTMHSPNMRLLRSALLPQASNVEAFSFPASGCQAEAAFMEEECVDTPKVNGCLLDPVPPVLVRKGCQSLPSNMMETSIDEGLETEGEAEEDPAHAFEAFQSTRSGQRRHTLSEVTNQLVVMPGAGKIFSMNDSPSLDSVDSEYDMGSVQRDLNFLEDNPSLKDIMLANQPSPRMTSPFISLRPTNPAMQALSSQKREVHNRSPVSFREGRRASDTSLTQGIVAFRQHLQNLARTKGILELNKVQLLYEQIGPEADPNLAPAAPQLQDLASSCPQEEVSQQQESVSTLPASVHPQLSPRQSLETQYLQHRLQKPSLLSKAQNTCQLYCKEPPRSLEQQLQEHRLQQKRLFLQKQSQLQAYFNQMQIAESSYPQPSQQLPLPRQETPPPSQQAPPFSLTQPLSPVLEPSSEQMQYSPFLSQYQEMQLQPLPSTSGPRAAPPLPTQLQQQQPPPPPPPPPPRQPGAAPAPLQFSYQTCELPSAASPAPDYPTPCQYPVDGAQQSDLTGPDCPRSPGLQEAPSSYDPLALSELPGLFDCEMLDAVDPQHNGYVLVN
Procedure: as §1, §2, §3

[1] = at 1 μM, read-out: inhibition of AuroraA
[2] = read-out: INHIBITORY EFFECT @ 1 uM: AuroraA
[3] = read-out: INHIBITORY EFFECT @ 1 uM: ABL1
[4] = read-out: INHIBITORY EFFECT @ 1 uM: LIMK1
[5] = read-out: INHIBITORY EFFECT @ 1 uM: SIK2

Structure (SMILES)	inhibition at 1 µM (RIPK5) [%]	inhibition at 1 µM (AuroraA; [1]) [%]	inhibition at 1 µM (AuroraA; [2]) [%]	inhibition at 1 µM (CK1epsilon) [%]	inhibition at 1 µM (INSR) [%]	inhibition at 1 µM (TIE2) [%]	inhibition at 1 µM (ABL1; at 1 μM, read-out: inhibition of ABL1) [%]	inhibition at 1 µM (ABL1; [3]) [%]	inhibition at 1 µM (LIMK1; at 1 μM, read-out: inhibition of LIMK1) [%]	inhibition at 1 µM (LIMK1; [4]) [%]	inhibition at 1 µM (SIK2; at 1 μM, read-out: inhibition of SIK2) [%]	inhibition at 1 µM (SIK2; [5]) [%]
O=C(c1ccc(Oc2ccccc2)cc1Cl)c1c[nH]c2ncnc(N[C@@H]3CC[C@@H](CO)OC3)c12 [ARQ-531, (2-chloro-4-phenoxyphenyl) (4-(((3R,6S)-6-(hydroxymethyl)tetrahydro-2H-pyran-3-yl)amino)-7H-pyrrolo[2,3-d]pyrimidin-5-yl) methanone]	70 to 89	≥ 50	50 to 69	50 to 69	70 to 89	< 50	–	–	–	–	–	–
Cc1cccnc1[C@H]1CCC[C@@H](c2ncccc2C)N1CCN1CCN(C(=O)c2ccc(-c3cc4c(-c5cccc(NC(=O)c6ccccc6)c5C)ncnc4[nH]3)cc2)CC1 [Compound I-10, N-(3-(6-(4-(4-(2-((2R,6S)-2,6-bis(3-methylpyridin-2-yl)piperidin-1-yl)ethyl)piperazine-1-carbonyl)phenyl)-7H-pyrrolo[2,3-d]pyrimidin-4-yl)-2-methylphenyl)benzamide]	< 50	50 to 89	50 to 69	< 50	< 50	< 50	50 to 89	70 to 89	50 to 89	70 to 89	50 to 89	50 to 69
COc1ccc(F)cc1C(=O)NCc1ccc(-c2nn([C@@H](C)C(F)(F)F)c(N)c2C(N)=O)cc1 [LOXO-305, pirtobrutinib]	< 50	–	< 50	< 50	< 50	< 50	–	< 50	–	< 50	–	< 50
C=CC(=O)N1CCC([C@@H]2CCNc3c(C(N)=O)c(-c4ccc(Oc5ccccc5)cc4)nn32)CC1 [Zanubrutinib, (7S)-2-(4-phenoxyphenyl)-7-(1-prop-2-enoylpiperidin-4-yl)-4,5,6,7-tetrahydropyrazolo[1,5-a]pyrimidine-3-carboxamide]	< 50	–	< 50	< 50	< 50	< 50	–	< 50	–	< 50	–	< 50
